# Results: patent publication US4939124A, “Treatment and diagnosis of dementia” (Laboratorios Serono S.A., priority 1988, dated 1990)
# No end group written: not given here.
# Tests used:
# Male Wistar rats [1] = experiment: Locomotor activity in open field paradigm (OUCEM-86), i.c.v. injection; format: in vivo; conditions: for ED50 of change in LA / Emax of change in LA (given as a dose): i.c.v., dose range 0.1 to 10 mcg
# Text: (§1) To clarify whether SS and GRF display at the central level the same antagonistic effect that they have at the pituitary level, the effects of these neuropeptides on several behavioral parameters have been studied using the OUCEM-86^TM (Osaka University Computerized Electronic Maze). The system is integrated by the following components: a Programmable Electronic Platform (PEP) (620×620 mm) equipped with 48 photo beam sensors (OPX-T30); a Programming Panel (PP) (Model BECM-0064) for paradigm stimulation; a Shock Generator Scrambler (SGS) (Model BSG-1065) to apply continuous or discontinuous electric current to the PEP; a Control Station (CS) (BEC 16-Bio Computer Control Station BCS-1105; Bio Medica, Ltd., Osaka) which processes inputs/outputs as an interface device to automatically computerize behavioral parameters; and a Computer System (NEC PC-9801 VM2) with 1 megabyte Random Access Memory (RAM) for data processing and experimental setting.
# (§2) Male Wistar rats (175-200 g) (N =5-8 rats/group) received intracerebroventricular (i.c.v.) injections of GRF1-44 and SS-14 over a range of 0.1 to 10 mcg. Then the rats were studied in the OUCEM under two different paradigms (e.g., open field and maze paradigms).
# The animals were placed in the PEP for 30-minute periods and locomotor activity (LA) was automatically recorded in an open field paradigm. Total LA is represented as total inputs (I/O) including movements in four-footed position (4F) and in two-footed position (2F), grooming, rearing and jumping activity, while linear (horizontal) movements (4F) are represented as pulses per minute (pm) or cm^2 /min
# Male Wistar rats [2] = experiment: Locomotor activity and learning in maze paradigm (escape from 1.5 mA shock area), i.c.v. injection; format: in vivo
# Method: The animals had to learn to escape from the shock area in order to avoid a continuous 1.5 mA electric shock. Experimental time --30 minutes.
# The rats were treated intracerebroventricularly with SS-14 (1 mcg) and GRF1-44 (1 mcg) and their behavior was automatically recorded by computer using the maze paradigm shown in FIG. 1. p/t denotes pulses per time unit (minute). Locomotor activity was quantified in pulses per minute or cm^2 /min. Total inputs (I/O) in neutral position (white bars) and shock position (black bars) denote how many times the animals enter neutral and shock areas. The N/S ratio results from dividing I/O in neutral position by I/O in shock position and is interpreted as an index of learning in the 30-minute experimental period. The positional time (seconds) represents how long the animals stay in neutral (white bars) or shock (black bars) areas. N-sp and S-sp (in seconds) indicate the time-latency per movement or input in neutral (white bars) and shock (black bars) areas, respectively.
# as §1, §2
# The amount of inputs (I/O) induced by SS was 103.5±29.5 (control =216.25±55.19, t=8.49, p<0.005) in the neutral area (NA) and 77.14±13.5 I/O in the shock area (SA) (control =298±40, t=1.26, n.s.). GRF generated 459.35±32.5 I/O in NA (t=18.13, p<0.005) and 340.5±63.5 I/O in SA (t=9.07, p<0.005) (FIGS. 1C,3). The NA/SA (N/S) ratios for control, SS- and GRF-treated rats were 0.72, 1.33, and 1.35, respectively (FIG. 2).
# [3] = tested on: female in-patients with primary degenerative dementia (Alzheimer like); experiment: 8-day GRF (1-29) NH2 therapy, MMS Folstein test and Crichton's scale; format: in vivo, human; conditions: MMS-Folstein test and Crichton's scale test
# Method: Twenty female in-patients with primary degenerative dementia (Alzheimer like) aged 67-84 years were divided in two therapy-groups with GRF (1-29) NH2. All patients were treated with this product for 8 days with either of the following schedules: (I) 250 mcg s.c. twice daily (II) 50 mcg i.v. twice daily Therapy was started after a 15-day wash-out period for psychotropic-drugs. Evolution of patients was assessed using the MMS Folstein test and Chrichton's scale test at 12 hours, 24 hours and 7 days after starting with GRF. The statistical evaluation was made using Friedman test with a risk level p<0,01 (highly significant differences).
Compound,"locomotor activity (LA), open field (Male Wistar rats [1]; 1 mcg i.c.v. (SS-14 / GRF1-44), 30-minute period, control 31.16±6.90 pm)",ED50 of change in LA (Male Wistar rats [1]),Emax of change in LA (given as a dose) (Male Wistar rats [1]),"locomotor activity (LA), maze paradigm (Male Wistar rats [2]; 1 mcg i.c.v., 30 minutes, control 17.12±5.42 pm)","NA/SA (N/S) ratio (index of learning) (Male Wistar rats [2]; 1 mcg i.c.v., control 0.72)","amount of inputs (I/O) in the neutral area (NA) (Male Wistar rats [2]; 1 mcg i.c.v., control 216.25±55.19)","amount of inputs (I/O) in the shock area (SA) (Male Wistar rats [2]; 1 mcg i.c.v., control 298±40)","learning abilities (N/S ratio as index) (Male Wistar rats [2]; doses of approximately 6.10×10^-10 mol (SS) and 1.98×10^-10 mol (GRF), i.c.v.)","comparison of SS and GRF in improving learning (Male Wistar rats [2]; maze paradigm, i.c.v.)",overall effect confirmed by re-evaluation after end of administration [3]
"C[C@H](N)C(=O)NCC(=O)N[C@H]1CSSC[C@@H](C(=O)O)NC(=O)[C@H](CO)NC(=O)[C@H]([C@@H](C)O)NC(=O)[C@H](Cc2ccccc2)NC(=O)[C@H]([C@@H](C)O)NC(=O)[C@H](CCCCN)NC(=O)[C@H](Cc2c[nH]c3ccccc23)NC(=O)[C@H](Cc2ccccc2)NC(=O)[C@H](Cc2ccccc2)NC(=O)[C@H](CC(N)=O)NC(=O)[C@H](CCCCN)NC1=O [SS, somatostatin]",20.88±2.82 pm,1830 pmol,6.10 nmol,6.01±1.45 pm,1.33,103.5±29.5 I/O,77.14±13.5 I/O,improve learning abilities,more effective than GRF in improving learning,–
GRF1-29: 1-29 segment of growth hormone releasing factor,–,297 pmol,5.95 nmol,–,–,–,–,–,–,–
"GRF1-44: 1-44 segment of growth hormone releasing factor, injected i.c.v. in rats; called GRF in Examples 1-2",–,99.1 pmol,1.98 nmol,–,–,–,–,–,–,–
"GRF (1-29) NH2: GRF product given s.c. or i.v. to dementia patients; called GRF in Example 3 (YADAIFTNSYRKVLGQLSARKLLQDIMSR-NH2; UniProt P01286 32-60, looked up, fragment)",–,–,–,–,–,–,–,–,–,significant effect
